Experiments:
MC3T3 cells = assay: Biocompatibility (MTT cell viability) of GaAcAc in pre-osteoblastic cells; type: cell-based; details: GaAcAc 10-50 μg/mL, 37° C., vs untreated control
Experimental: (§1) RAW 264.7 (pre-osteoclast) and MC3T3 (pre-osteoblast) cells were cultured and maintained in DMEM & AMEM supplemented with 10% FBS and 1% PenStrep in a humidified incubator at 37° C. and 5% CO2 conditions. RAW and MC 3 T3 cells, upon 70-80% confluency, were gently detached using a cell scraper and/or 0.25% v/v trypsin/EDTA. The detached cell suspension was collected and centrifuged at 1500 RPM for 5 minutes and seeded accordingly to the requirement for each experiment.
(§2) After the stipulated time of incubation, cell viability was measured by MTT assay using untreated control cells as a reference.

OCs from RAW 264.7 cells = assay: Pit resorption assay on bovine cortical bone slices, OCs from RAW 264.7; type: cell-based, murine; details: vs positive control
Experimental: To assess the effects of various treatments on OC function, we assessed the possible anti-resorptive effect via pit resorption assay. Briefly, bovine cortical bone slices were cleaned and sterilized as per the manufacturer's instructions and placed in a 24-well plate. The study was carried out using OC derived from either RAW 264.7 differentiation or murine hematopoietic stem cells (mHSCs).
Using OCs from RAW 264.7 cells, the detached pre-OC cells were seeded on top of the sanitized bovine cortical bone slice using 1.5×10^5 cells/cm^2 supplemented with a complete growth medium on day 0. […] Subsequent treatment with complete media containing RANKL occurred every two days for seven days. After seven days, the wells were aspirated and processed for further analysis.
To assess the osteoclastic resorptive effect of the wells with or without treatment, the bone slices were fixed with 10% formaldehyde and initially TRAP-stained, as reported. The bone slices were thoroughly cleaned with cotton swab and strained with 0.5% toluidine blue stain and incubated for three minutes at room temperature. The slices were then washed with water five times and patted dry. The pits formed on the bone slices, depicting OC function, were evaluated.

RAW 264.7 cells [1] = assay: Biocompatibility (MTT cell viability) of GaAcAc in pre-osteoclastic cells; type: cell-based, murine; details: GaAcAc 10-50 μg/mL, 37° C., vs untreated control
Experimental: as §1, §2

Cathepsin K (CTSK) = assay: CTSK ELISA of cell media during bone resorption, RAW 264.7; type: cell-based, mouse; design: dose or concentration left out as unconfirmed
Experimental: Cathepsin K (CTSK) assay was conducted during bone resorption studies (as described above) as a useful tool to assess the effects of GaMH treatment on OC function. Supernatant from treated/untreated wells after the third treatment of differentiation factors was collected and spun down at 2000g for 10 minutes at 4° C. The supernatant was then assessed for its CTSK concentration using the mouse CTSK/Cathepsin K Sandwich ELISA kit as per manufacture protocol.

[2] = In-vivo toxicity of GaAcAc solution based on weight of animals; details: 100 μL of 100 μg/mL subcutaneously 1-3×/week for 4 weeks
Experimental: Groups included in the study are: control: No injections; 1×/week: 100 μL of 100 μg/mL Ga solution injected subcutaneously in the back once per week for 4 weeks; 2×/week: 100 μL of 100 μg/mL Ga solution injected subcutaneously in the back twice per week for 4 weeks; 3×/week: 100 μL of 100 μg/mL Ga solution injected subcutaneously in the back three times per week for 4 weeks.

[3] = tested on: murine hematopoietic stem cells (mHSCs); assay: OC differentiation of murine hematopoietic stem cells with M-CSF and RANKL; type: cell-based, C57BL/6 mice
Experimental: All mice were housed and maintained at Northeast Ohio Medical University according to the guidelines of the Institutional Animal Care and Use Committee. Bone marrow cells were flushed from the femora, and tibiae were extracted from euthanized C57BL/6 mice (male, 6-8 weeks) as described previously. Xing L. and B.F. Boyce, Methods Mol Biol, 1130: p. 307-313(2014). The flushed cells were incubated overnight to separate hematopoietic (in supernatant) and mesenchymal (adherent) stem cells. The supernatant was then collected and seeded at the required density based on the type of well plate used (96 well plate: 2×10^5 cells/well & 24 well plate: 1.5×10^6 cells per well-day 0) in culture media supplemented with 30 ng/ml of M-CSF. […] On day-6, fresh media supplemented with M-CSF & RANKL were added to the differentiating cells. On day-7, the plates were fixed and evaluated for TRAP activity and counted for the number of TRAP-stained multinucleated osteoclasts formed similarly as mentioned above.

cFos, NFAT2, TRAF6, TRAP = assay: Western blotting of OC differentiation markers; type: cell-based, murine; details: vs positive control (RANKL)
Experimental: To investigate the effects on OC differentiation, Pre-OC (RAW 264.7) cells were seeded, treated, and differentiated with various treatments as described under OC differentiation. Afterward, cells were lysed with 100 μL of RIPA buffer containing protease inhibitor. The lysates were collected and centrifuged at 1500 RPM for 10 minutes and analyzed for their protein content via the BCA protein assay kit. Protein samples (20 μg) were separated via 10% SDS-page gel and transferred onto a polyvinylidene fluoride (PVDF) membrane. The membrane was blocked with a respective blocking buffer, either 5% BSA or non-fat dry milk, for an hour. After blocking, the membranes were washed with 1× TBST buffer and later probed with primary antibodies; NFAT2, TRAP, TRAF6 and cFos with GAPDH as a loading control, diluted with 2% respective blocking buffer overnight at 4° C., followed by a 1-hour incubation with secondary HRP conjugated anti-rabbit IgG secondary antibody. The blots were visualized using the Fluorchem system.

RAW 264.7 cells [4] = assay: OC differentiation of RAW 264.7 cells with RANKL (TRAP activity, OC count, TRAP staining); type: cell-based, murine; details: for TRAP activity: vs positive control (RANKL alone); for number of TRAP-stained OCs (OC count): vs positive control, p<0.0001
Experimental: Pre-osteoclast (RAW 264.7) cells were differentiated by treating the cells with culture media supplemented with or without different concentration of F127 hydrogel (HG) leachates and 30 ng/ml RANKL. The cells were then assessed for TRAP activity and stained. (A) TRAP activity; (B) OC count. Only cells which have 3 or more nuclei and were TRAP stained, i.e., pink color were counted. Each data point represents Mean±SD; n=4 wells. *** p<0.0001, *p<0.01 vs RANKL.
RAW 264.7 (Pre-OC) cells were seeded at a density of 1.5×10^5 cells/cm^2 (day 0) in a 24-well bottom dish of an insert plate and incubated overnight for adherence. Subsequently, (day 1), cells were treated with growth media supplemented with 30 ng/ml of RANKL (positive control) alone or RANKL (30 ng/ml) together with various treatments-GaAcAc solution, MH, or GaMH. […] After the initial treatment and RANKL supplementation, cells in all treatment groups (except untreated control) received RANKL supplementation on day 3 to induce OC formation. On day 4, mature OCs were fixed at 4% paraformaldehyde for 10 minutes at room temperature and evaluated for the extent of OC differentiation based on tartrate-resistant acid phosphatase (TRAP) activity and stained with TRAP staining solution. TRAP (pink colored) stained and multinucleated (≥3 nuclei) cells according to earlier reported methods. Abdelmagid et al., J Biol Chem, 290(33): p. 20128-46 (2015).

[5] = In-vivo retention by IVIS imaging with ICG marker; design: species or system BALB/c mice
Experimental: In-vivo retention studies were carried out in healthy BALB/c mice using indocyanine green (ICG) as the marker with monitoring via the in-vivo imaging system (IVIS) Lumina XRMS series III (PerkinElmer, USA). All animal studies were performed according to a protocol approved by the Institutional Animal Care and Use Committee of Northeast Ohio Medical University.
All treatments were administered by a single periosseous (intramuscular, bone adjacent) injection in the lower right hindlimb. The animals were observed via IVIS at a selected time point to obtain total radiant efficiency of the injection site with an excitation set at 780 nm and emission at 845 nm based on the earlier reported method. Okubo et al., International Journal of Pharmaceutics, 575: p. 118845(2020 ).

[6] = tested on: OC differentiation and function; details: earlier studies; cited from earlier work

Q: For `CC(=O)/C=C(/C)[O][Ga]([O]/C(C)=C\C(C)=O)[O]/C(C)=C\C(C)=O` [GaAcAc, gallium acetylacetonate], which “viability of pre-OB cells” value (MC3T3 cells) is on record?
A: Its value is “did not affect the viability”.

Q: And the “resorption pits on bone slices” value (OCs from RAW 264.7 cells; 10 μg/mL GaAcAc)?
A: Its value is “slightly reduced”.

Q: And the “number of pits formed” value (OCs from RAW 264.7 cells; 50 μg/mL)?
A: Its value is “significantly decrease the number of pits formed”.

Q: What about the “viability of pre-OC cells” value (RAW 264.7 cells [1]) of the same molecule?
A: The value was “did not affect the viability”.

Q: What about the “reduction in level of CTSK” value (Cathepsin K (CTSK); 50 GaAcAc solution) of the same molecule?
A: Its value is 4 times reduction.

Q: And the “reduction in CTSK concentration” value (Cathepsin K (CTSK); GaAcAc solution (10))?
A: The value was 1.4 times reduction.

Q: What about the “toxicity based on weight of animals” value [2] of the same molecule?
A: The value was “did not show detectable toxicity”.

Q: And the “GaAcAc concentrations with significant inhibition of OC differentiation and OC count” value ([3]; dose-dependent, p<0.0001)?
A: Its value is “greater than 25 μg/mL”.

Q: And the “OC differentiation and OC counts” value ([3]; mHSCs)?
A: Its value is “suppressed OC differentiation and OC counts”.

Q: And the “expression levels of OC differentiation markers” value (cFos, NFAT2, TRAF6, TRAP; 10 μg/mL GaAcAc)?
A: Its value is “slight decrease in expression levels”.

Q: And the “expression levels of OC differentiation markers” value (cFos, NFAT2, TRAF6, TRAP; 50 μg/mL GaAcAc)?
A: The value was “downregulation of expression levels”.

Q: And the “TRAP staining (representative images)” value (RAW 264.7 cells [4]; 10 μg/mL)?
A: Its value is “decrease in TRAP-stained cells”.

Q: What about the TRAP activity (RAW 264.7 cells [4]; 10 μg/mL) of the same molecule?
A: The TRAP activity was “remarkable decrease in TRAP activity”.

Q: And the “number of TRAP-stained OCs (OC count)” value (RAW 264.7 cells [4]; 10 μg/mL)?
A: The value was “significant reduction in the number of OCs”.

Q: What about the “TRAP staining (representative images)” value (RAW 264.7 cells [4]; 50 μg/mL) of the same molecule?
A: The value was “complete absence of multinucleated and TRAP-stained cells”.

Q: What about the TRAP activity (RAW 264.7 cells [4]; 50 μg/mL) of the same molecule?
A: Its TRAP activity is “remarkable decrease in TRAP activity”.

Q: What about the “number of TRAP-stained OCs (OC count)” value (RAW 264.7 cells [4]; 50 μg/mL) of the same molecule?
A: The value was “significant reduction in the number of OCs”.

Q: Which “fluorescent intensity at injection site” value ([5]; 8 hrs post-injection, single periosseous injection) does the source give for `CC1(C)C(/C=C/C=C/C=C/C=C2\N(CCCCS(=O)(=O)O)c3ccc4ccccc4c3C2(C)C)=[N+](CCCCS(=O)(=O)[O-])c2ccc3ccccc3c21` [ICG, Indocyanine green] here?
A: The value was “diminished”.

Q: What about the “fluorescent intensity at injection site” value ([5]; 24 hrs post injection) of the same molecule?
A: The value was “completely disappeared”.

Q: Which “OC differentiation and function” value [6] does the source give for `O=[N+]([O-])[O-].O=[N+]([O-])[O-].O=[N+]([O-])[O-].[Ga+3]` [GaN, gallium nitrate] here?
A: Its value is “effectively inhibit OC differentiation and function without affecting OBs”.

Reference: patent publication US20260207824A1, “GALLIUM-LOADED HYDROGELS FOR BONE TREATMENT” (NORTHEAST OHIO MEDICAL UNIVERSITY, priority 2022, published 2026)
